The test system of assay [1] is claudin5. Put plainly: Claudin5 protein expression in BVECs of cerebral cortex (IHC, MATLAB), DMHC pigs. The assay is classed as in vivo, pig. The settings on record: Darapladib 10 mg/kg/d orally, 24 weeks. Here is the method: Briefly, after induction of diabetes by a single injection of Streptozotocin, animals were fed a high cholesterol diet. After a month of DMHC induction and acclimation, animals were randomly segregated to untreated DMHC and Darapladib-treated DMHC groups. Darapladib-treated pigs received 10 mg/kg/d of Darapladib orally. Three of the pigs were spared from DMHC induction and served as age-matched, non-DMHC normal controls. Twenty four weeks after acclimation, animals were euthanized and their brains and eyes were immediately removed. Brains were divided anteroposteriorly into anterior, middle and posterior regions. For each of these brain regions, 2-3 tissue blocks were generated for routine tissue fixation (10% formalin) or freezing and histological processing. The anterior cortical region comprised of anterior 2⁄3 of frontal lobe and anterior 1⁄3 of temporal lobe. The middle cortical region contained mid 1⁄3 of temporal lobe and anterior 1⁄2 of the parietal lobe. The posterior cortex included the posterior 1⁄2 of the parietal lobe, posterior 1⁄3 of the temporal lobe and the occipital lobe. Eyes were dissected longitudinally to sever the retina at the optic nerve. The sections were fixed in 10% formalin and embedded as flattened disc in paraffin. The tissue samples were processed using routine histology techniques. Standard Hematoxylin & Eosin (H&E) staining (FIG. 1) was carried out in retinal sections. Localization of claudin5, occludin and IgG in the cerebral cortex and retina was carried out using immunohistochemistry (IHC) as described previously. Briefly, tissue sections were deparaffinized in xylene and rehydrated in decreasing concentrations of ethanol. The antigenicity of these tissues was enhanced by microwaving in citrate buffer. Sections were treated with 3% H2O2 for 10 minutes to quench endogenous peroxidase activity. Tissues were subsequently treated with their appropriate blocking serum for 30 minutes at room temperature and then probed with anti-claudin5 (Invitrogen, Cat #35-2500, dilution 1:150) or anti-occludin (Invitrogen, Cat #71-1500, dilution 1:800) antibodies for 1 hour at room temperature. Extravasated IgG was detected using biotinylated anti-swine IgG antibody (Vector laboratories, Inc., Catalogue # BA-9020; dilution 1:100). The use of occludin antibody required pre-treatment with a protease (Sigma, Catalogue P-5147; 1.5 mg/ml) for 10 minutes at 37° C. At the end of primary antibody step, all tissue sections were thoroughly rinsed in PBS and then probed with biotin-labeled secondary antibodies [anti-mouse IgG (Vector laboratories, Catalogue # PK-6102; Dilution 1:100) for claudin5 and anti-rabbit IgG (Vector laboratories, Inc., Catalogue # PK-6101; Dilution 1:100) for occludin] for 30 minutes at room temperature. Sections were then rinsed in PBS, treated with avidin-peroxidase complex (Vectastain ABC Elite kit, Vector Laboratories, Inc., Catalogue PK-6100), washed with PBS and visualized with 3-3-diaminobenzidine-4-HCL (DAB)/H2O2 (Imm-PACT-DAB) (Dako, Code K3468). […] Slides were examined and photographed with a Nikon FXA microscope, and digital images were recorded using a Nikon DXM1200F digital camera and analyzed using MATLAB (MathWorks, Mass., USA) and NIS-elements software (Nikon, Melville, N.Y.). […] Claudin5 and occludin protein expression in pig cerebral cortex was evaluated semi-quantitatively using IHC by taking images at five random locations as described previously. Images were analyzed using MATLAB (MathWorks, Mass., USA). […]

In assay [2] the test system is porcine retina. Put plainly: Cell number in retinal GCL and INL by counting DAPI-positive nuclei, DMHC pigs. The assay is classed as in vivo, pig. The settings on record: Darapladib 10 mg/kg/d orally, 24 weeks, FIG. 3D-E. Here is the method:
Briefly, after induction of diabetes by a single injection of Streptozotocin, animals were fed a high cholesterol diet. After a month of DMHC induction and acclimation, animals were randomly segregated to untreated DMHC and Darapladib-treated DMHC groups. Darapladib-treated pigs received 10 mg/kg/d of Darapladib orally. Three of the pigs were spared from DMHC induction and served as age-matched, non-DMHC normal controls. Twenty four weeks after acclimation, animals were euthanized and their brains and eyes were immediately removed. Brains were divided anteroposteriorly into anterior, middle and posterior regions. For each of these brain regions, 2-3 tissue blocks were generated for routine tissue fixation (10% formalin) or freezing and histological processing. The anterior cortical region comprised of anterior ⅔ of frontal lobe and anterior ⅓ of temporal lobe. […] Cells positive for GFAP were counted throughout the whole thickness of the retina, and then quantified using ImagePro7.0 (Media Cybernetics, Silver Spring, Md.). Briefly, a 300×300 pixel square area was randomly made in each retinal section in three contiguous locations across the retina and the positive GFAP area was determined per total area using a fixed threshold. […] Cell number was determined by counting the DAPI-positive nuclei in a fixed area. […]

On to `CCN(CC)CCN(Cc1ccc(-c2ccc(C(F)(F)F)cc2)cc1)C(=O)Cn1c(SCc2ccc(F)cc2)nc(=O)c2c1CCC2` [Darapladib], for which, in assay [1] (FIG. 7A), the “claudin5 protein expression, anterior cortex, versus DMHC group” value is “reduction in claudin5 expression compared to the DMHC group, but this difference did not reach statistical significance” and the “claudin5 protein expression, anterior cortex, versus controls” value is listed as “significantly higher than in controls”. Moreover, in assay [1] (FIG. 7B), the “claudin5 protein expression, middle cortex, versus DMHC only” value is reported as “approached statistical significance” and the “claudin5 protein expression, middle cortex, versus controls” value is “reduced expression of claudin5 to levels not significantly different from controls”. In addition, in assay [1] (rank among treatment groups, FIG. 7C), the “claudin5 protein expression, posterior cortex” value is given as “highest expression of claudin5”. In assay [2], the “cell number (nuclei) in GCL” value was “comparable to controls” and the “cell number (nuclei) in INL” value is “comparable to controls”.

The record behind these values is patent US20160166572A1, “BENEFICIAL EFFECTS OF Lp-PLA2 INHIBITORS IN TREATMENT OF DIABETIC RETINOPATHY AND AGE-RELATED MACULAR DEGENERATION” (Rowan University, priority 2014, published 2016).
